This is an account of results in patent US20260085062A1, “NOVEL COMPOUNDS AS CK2 INHIBITORS” (Cambridge Enterprise Limited, priority 2022, published 2026).

Experiment [1] addresses T1, intracellular CK2α (Homo sapiens, UniProt P19784).
T1 construct: host or cells: HCT116 (ATCC CCL-247)
The experiment can be described thus: Cell-based NanoBRET assay for inhibitor binding to intracellular CK2α. The settings on record: HCT116 cells transiently transfected with CSNK2A2-NanoLuc fusion vector; Tracer K-5; 2 h; read-out: Assay 3: NanoBRET ™ assay for binding to intracellular CK2α. Summed up:
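Apparent affinity came from BRET ratio (acceptor/donor ×1,000), with donor read at 450 nm and acceptor at 610 or 630 nm. Compounds competed off a tracer added at fixed concentration to cells carrying a NanoLuc-CK2α fusion.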
For orientation: Bioluminescence resonance energy transfer reports proximity on the nanometre scale.

The target of experiment [2] is T2, CK2α (Homo sapiens, UniProt P68400).
T2 construct: CK2α (residues 2-329) was produced in Escherichia coli BL21 (DE3) for kinase activity screening; His6 (N, cleaved yes); made in house; host or cells: Escherichia coli BL21 (DE3)
T2 sequence (P68400 2-329): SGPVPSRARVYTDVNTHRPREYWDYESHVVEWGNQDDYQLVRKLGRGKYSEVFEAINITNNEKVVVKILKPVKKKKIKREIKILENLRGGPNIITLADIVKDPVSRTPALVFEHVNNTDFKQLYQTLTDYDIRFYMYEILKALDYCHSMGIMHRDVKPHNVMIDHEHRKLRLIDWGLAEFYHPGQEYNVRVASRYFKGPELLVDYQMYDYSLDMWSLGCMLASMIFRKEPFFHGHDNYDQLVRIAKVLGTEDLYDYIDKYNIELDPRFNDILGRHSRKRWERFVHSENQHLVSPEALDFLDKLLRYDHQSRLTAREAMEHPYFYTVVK
Briefly: Biochemical assay for inhibitors of CK2α kinase activity (ADP-Glo). The conditions noted are these: 0.2 nM CK2α, 50 μM peptide substrate, 15 μM ATP, read-out: Assay 1: CK2α Enzyme IC50. (ADP-Glo turns the ADP formed in a reaction into a luminescent signal.)

Experiment [3] addresses T3, CLK2 (Homo sapiens, UniProt P49760).
T3 construct: purchased Carna Biosciences 04-127
The experiment can be described thus: Biochemical assay for inhibitors of CLK2 kinase activity (ADP-Glo). The settings on record: 20 nM CLK2, 50 μM peptide substrate, 100 μM ATP, read-out: Assay 2: CLK2 Enzyme IC50.

Each structure is given as a SMILES string.

T3 sequence (P49760 whole entry): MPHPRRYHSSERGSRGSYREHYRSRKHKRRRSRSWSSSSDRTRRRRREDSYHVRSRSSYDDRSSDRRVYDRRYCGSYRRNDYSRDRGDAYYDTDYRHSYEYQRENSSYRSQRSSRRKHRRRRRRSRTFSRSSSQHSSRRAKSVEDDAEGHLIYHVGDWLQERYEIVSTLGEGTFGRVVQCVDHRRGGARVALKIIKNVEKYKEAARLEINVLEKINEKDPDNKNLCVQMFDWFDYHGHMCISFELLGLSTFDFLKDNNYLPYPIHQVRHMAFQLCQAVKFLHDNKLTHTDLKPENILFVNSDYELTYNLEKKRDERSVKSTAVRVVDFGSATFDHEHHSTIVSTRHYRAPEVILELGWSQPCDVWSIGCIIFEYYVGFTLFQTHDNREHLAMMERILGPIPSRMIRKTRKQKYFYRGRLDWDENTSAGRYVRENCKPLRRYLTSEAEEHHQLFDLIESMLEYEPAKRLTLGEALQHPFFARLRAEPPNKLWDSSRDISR
T1 sequence (P19784 whole entry): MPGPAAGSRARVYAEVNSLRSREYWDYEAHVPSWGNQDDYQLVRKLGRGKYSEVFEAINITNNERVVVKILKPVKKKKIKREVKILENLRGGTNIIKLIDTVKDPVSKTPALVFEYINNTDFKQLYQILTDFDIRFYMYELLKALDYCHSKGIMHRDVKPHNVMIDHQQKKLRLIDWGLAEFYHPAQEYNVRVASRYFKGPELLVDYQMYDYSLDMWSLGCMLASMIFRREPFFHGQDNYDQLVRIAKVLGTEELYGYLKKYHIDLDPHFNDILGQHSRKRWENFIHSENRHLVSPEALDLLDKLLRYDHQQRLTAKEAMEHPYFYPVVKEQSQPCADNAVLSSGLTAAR

For the compound `N#Cc1cc(-c2cc(NCCCNC(=O)CCNCc3ccc(-c4ccccc4)c(Cl)c3)c3cn[nH]c3c2)ccn1` [Example 74, 3-(((2-chloro-[1,1′-biphenyl]-4-yl)methyl)amino)-N-(3-((6-(2-cyanopyridin-4-yl)-1H-indazol-4-yl)amino)propyl)propanamide], the IC50 in experiment [1] is 2130 nM; in experiment [2], 19.7 nM; in experiment [3] it was 10000 nM.

In the case of `N#CCc1cc(CNCCCCOC2CN(c3cc(-c4cnoc4)cc4[nH]ncc34)C2)cc(OC(F)(F)F)c1` [Example 146, 2-(3-(((4-((1-(6-(isoxazol-4-yl)-1H-indazol-4-yl)azetidin-3-yl)oxy)butyl)amino)methyl)-5-(trifluoromethoxy)phenyl)acetonitrile], the IC50 in experiment [1] was found to be 299 nM; in experiment [2], 8.18 nM; in experiment [3], 152 nM.

For `Fc1cc(CNCCCCOCCNc2cc(-n3cnnc3)c(Cl)c3[nH]ncc23)cc(F)c1OC(F)(F)F` [Example 182, 7-chloro-N-(2-(4-((3,5-difluoro-4-(trifluoromethoxy)benzyl)amino)butoxy)ethyl)-6-(4H-1,2,4-triazol-4-yl)-1H-indazol-4-amine], the IC50 in experiment [1] was 5410 nM; in experiment [2], 29.6 nM; in experiment [3], 1820 nM.

As for `C[C@@H](CCCOCCNc1cc(-c2cnnc(O)c2)cc2[nH]ncc12)NCc1cc(CC#N)cc(OC(F)(F)F)c1` [Example 194, (S)-2-(3-(((5-(2-((6-(6-hydroxypyridazin-4-yl)-1H-indazol-4-yl)amino)ethoxy)pentan-2-yl)amino)methyl)-5-(trifluoromethoxy)phenyl)acetonitrile], the IC50 in experiment [1] is 14.9 nM; in experiment [2] it was 0.76 nM; in experiment [3] it was 195 nM.

In the case of `OCc1cc(CNC2CC(COCCOc3cc(-c4cnnc(O)c4)cc4[nH]ncc34)C2)cc(OC(F)(F)F)c1` (stereo not drawn) [Example 200], the IC50 turned out to be 2960 nM in experiment [1], 38.2 nM in experiment [2] and 594 nM in experiment [3].

With `Clc1ccc2nc(CNCCCCOCCNc3cc(-n4cnnc4)cc4[nH]ncc34)[nH]c2c1` [Example 23, N-(2-(4-(((6-chloro-1H-benzo[d]imidazol-2-yl)methyl)amino)butoxy)ethyl)-6-(4H-1,2,4-triazol-4-yl)-1H-indazol-4-amine], the IC50 in experiment [1] was 17500 nM; in experiment [2], 19.9 nM; in experiment [3], 86.1 nM.

As for `O=C(O)c1cc(NCCOCCCCNCc2cc(F)c(OC(F)(F)F)c(F)c2)c2cn[nH]c2c1` [Example 197, 4-((2-(4-((3,5-difluoro-4-(trifluoromethoxy)benzyl)amino)butoxy)ethyl)amino)-1H-indazole-6-carboxylic acid], the IC50 in experiment [1] was greater than 3000 nM; in experiment [2] it was greater than 1000 nM; in experiment [3] it was greater than 50000 nM.

On to `FC(F)(F)Oc1ccc(CNCCc2nnc(CCNc3cc(-n4cnnc4)cc4[nH]ncc34)[nH]2)cc1Cl` [Example 16, N-(2-(5-(2-((3-chloro-4-(trifluoromethoxy)benzyl)amino)ethyl)-4H-1,2,4-triazol-3-yl)ethyl)-6-(4H-1,2,4-triazol-4-yl)-1H-indazol-4-amine], for which the IC50 in experiment [1] is 3400 nM; in experiment [2] it was 14.1 nM; in experiment [3], 371 nM.

Consider `O=C(CCNCc1ccc(OC(F)(F)F)c(Cl)c1)NCCCNc1cc(-n2cnnc2)cc2[nH]ncc12` [Example 33, N-(3-((6-(4H-1,2,4-triazol-4-yl)-1H-indazol-4-yl)amino)propyl)-3-((3-chloro-4-(trifluoromethoxy)benzyl)amino)propanamide], for which the IC50 came out at 452 nM in experiment [1], 0.48 nM in experiment [2] and 77.8 nM in experiment [3].

`O=C(CCNCc1ccc(-c2ccccc2)c(Cl)c1)NCCCNc1cc(C2CCOCC2)cc2[nH]ncc12` [Example 90, 3-(((2-chloro-[1,1′-biphenyl]-4-yl)methyl)amino)-N-(3-((6-(tetrahydro-2H-pyran-4-yl)-1H-indazol-4-yl)amino)propyl)propanamide]: the IC50 worked out at 10600 nM in experiment [1], 212 nM in experiment [2] and 8780 nM in experiment [3].
